Where two headings read alike, the source gives them in different places.
Experiments:
progesterone receptor [1] = molecular target: T1, progesterone receptor (Homo sapiens (Human), UniProt P06401); assay: Progesterone receptor binding test (displacement of 3H-progesterone); conditions: for Receptor binding Progesterone receptor Competition factor: CF relative to progesterone (=1), CF <1 means higher affinity; for CF PR/CF MR: ratio of competition factors, progesterone receptor to mineralocorticoid receptor; for IC50: read-out: Receptor binding Progesterone receptor IC50, cytosol from PR-expressing insect cells (Hi5), 3H-progesterone
Target sequence in this assay (P06401 whole entry, species assumed): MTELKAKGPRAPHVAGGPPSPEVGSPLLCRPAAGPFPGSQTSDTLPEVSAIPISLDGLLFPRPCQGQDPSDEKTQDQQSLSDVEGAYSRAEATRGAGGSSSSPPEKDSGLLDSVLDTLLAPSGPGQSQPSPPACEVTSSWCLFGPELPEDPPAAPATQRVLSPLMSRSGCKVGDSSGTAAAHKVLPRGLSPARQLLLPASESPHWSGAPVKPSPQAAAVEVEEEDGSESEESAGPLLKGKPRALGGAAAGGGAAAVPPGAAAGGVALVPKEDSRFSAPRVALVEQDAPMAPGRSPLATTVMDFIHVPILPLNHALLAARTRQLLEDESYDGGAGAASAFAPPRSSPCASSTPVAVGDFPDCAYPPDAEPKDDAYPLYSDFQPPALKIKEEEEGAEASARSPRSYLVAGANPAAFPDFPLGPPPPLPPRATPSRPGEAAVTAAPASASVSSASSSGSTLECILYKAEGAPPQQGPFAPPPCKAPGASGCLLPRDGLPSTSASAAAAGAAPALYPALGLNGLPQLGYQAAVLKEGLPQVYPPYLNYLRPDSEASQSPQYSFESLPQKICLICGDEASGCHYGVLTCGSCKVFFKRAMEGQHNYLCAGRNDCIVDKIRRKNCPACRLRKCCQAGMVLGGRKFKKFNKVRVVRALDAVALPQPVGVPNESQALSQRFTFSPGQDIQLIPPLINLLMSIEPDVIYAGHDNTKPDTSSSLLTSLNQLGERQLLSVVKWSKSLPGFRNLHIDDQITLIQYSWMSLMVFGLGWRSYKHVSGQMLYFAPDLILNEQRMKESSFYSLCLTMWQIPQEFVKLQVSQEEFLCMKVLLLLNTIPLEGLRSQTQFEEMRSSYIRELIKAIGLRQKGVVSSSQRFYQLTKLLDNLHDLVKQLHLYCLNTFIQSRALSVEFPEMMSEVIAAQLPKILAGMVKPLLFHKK
Protocol: Progesterone Receptor Binding Test:
Using cytosol from progesterone receptor-expressing insect cells (Hi5), competitive binding to the progesterone receptor was determined from the ability to displace ^3H-progesterone as reference substance from the receptor.

progesterone receptor [2] = molecular target: T1, progesterone receptor; assay: Progestational action by transactivation test (CHO K1 reporter cells, luciferase); assay type: cell-based; conditions: for Emax: read-out: In vitro Transactivation Progesterone receptor Agonisten Efficacy
Protocol: 4. Determination of Progestational Action by Means of Transactivation Tests:
The test compounds were added eight hours later, and the cells were incubated with the compounds for 16 hours. The tests were carried out in triplicate. At the end of incubation the medium containing the effector was removed and replaced with lysis buffer. After luciferase assay substrate (Promega, #E1501) had been added, the 96-well plates were then put in a microplate luminometer (Pherastar, BMG labtech), and the luminescence was measured. The IC50 values were evaluated using software for calculating dose-effect relations.
Target sequence in this assay (P06401 679-913, species assumed): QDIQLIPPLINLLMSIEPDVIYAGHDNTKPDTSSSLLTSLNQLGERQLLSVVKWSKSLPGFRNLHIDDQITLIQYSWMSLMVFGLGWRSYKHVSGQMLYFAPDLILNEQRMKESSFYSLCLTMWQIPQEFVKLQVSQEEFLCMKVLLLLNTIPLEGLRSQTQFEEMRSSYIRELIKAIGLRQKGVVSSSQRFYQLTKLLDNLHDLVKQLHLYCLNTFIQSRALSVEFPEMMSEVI

[3] = molecular target: mineralocorticoid receptor (Homo sapiens (Human), UniProt P08235); assay: Mineralocorticoid receptor binding test (displacement of 3H-aldosterone); conditions: cytosol from MR-expressing insect cells (Hi5), reference 3H-aldosterone
mineralocorticoid receptor, sequence (P08235 whole entry, species assumed): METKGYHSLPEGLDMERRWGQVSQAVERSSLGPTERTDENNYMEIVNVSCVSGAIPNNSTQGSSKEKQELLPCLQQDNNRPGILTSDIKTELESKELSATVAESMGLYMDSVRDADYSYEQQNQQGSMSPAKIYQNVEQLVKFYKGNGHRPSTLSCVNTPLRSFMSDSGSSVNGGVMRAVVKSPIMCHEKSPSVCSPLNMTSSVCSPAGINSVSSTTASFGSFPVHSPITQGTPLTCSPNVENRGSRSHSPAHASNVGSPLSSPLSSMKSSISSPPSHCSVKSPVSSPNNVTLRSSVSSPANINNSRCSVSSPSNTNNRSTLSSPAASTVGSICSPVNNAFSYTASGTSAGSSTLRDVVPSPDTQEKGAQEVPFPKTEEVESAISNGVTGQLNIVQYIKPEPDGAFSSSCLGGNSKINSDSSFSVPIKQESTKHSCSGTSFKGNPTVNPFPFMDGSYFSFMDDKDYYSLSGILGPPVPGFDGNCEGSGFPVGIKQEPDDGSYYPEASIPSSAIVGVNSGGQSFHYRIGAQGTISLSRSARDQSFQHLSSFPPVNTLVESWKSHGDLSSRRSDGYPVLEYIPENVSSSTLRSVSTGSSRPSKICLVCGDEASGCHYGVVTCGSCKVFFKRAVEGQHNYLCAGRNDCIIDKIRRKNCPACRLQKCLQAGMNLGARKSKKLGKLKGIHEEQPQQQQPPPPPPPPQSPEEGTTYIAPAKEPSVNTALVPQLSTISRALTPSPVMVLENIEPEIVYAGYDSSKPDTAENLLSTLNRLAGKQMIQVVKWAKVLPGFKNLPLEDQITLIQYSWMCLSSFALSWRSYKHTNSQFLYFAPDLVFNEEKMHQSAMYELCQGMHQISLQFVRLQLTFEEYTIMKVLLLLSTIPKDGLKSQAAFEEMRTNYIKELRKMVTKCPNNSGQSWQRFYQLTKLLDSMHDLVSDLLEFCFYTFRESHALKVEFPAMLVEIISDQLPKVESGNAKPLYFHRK
Text: 2. Mineralocorticoid Receptor Binding Test:

androgen receptor = androgen receptor (Homo sapiens (Human), UniProt P10275); assay: Androgen receptor binding test (displacement of 3H-testosterone); conditions: cytosol from AR-expressing insect cells (Hi5); for Receptor binding Androgen receptor Competition factor: reference 3H-testosterone; for IC50: read-out: Receptor binding Androgen receptor IC50, 3H-testosterone
androgen receptor, sequence (P10275 whole entry, species assumed, the tested form may be a part): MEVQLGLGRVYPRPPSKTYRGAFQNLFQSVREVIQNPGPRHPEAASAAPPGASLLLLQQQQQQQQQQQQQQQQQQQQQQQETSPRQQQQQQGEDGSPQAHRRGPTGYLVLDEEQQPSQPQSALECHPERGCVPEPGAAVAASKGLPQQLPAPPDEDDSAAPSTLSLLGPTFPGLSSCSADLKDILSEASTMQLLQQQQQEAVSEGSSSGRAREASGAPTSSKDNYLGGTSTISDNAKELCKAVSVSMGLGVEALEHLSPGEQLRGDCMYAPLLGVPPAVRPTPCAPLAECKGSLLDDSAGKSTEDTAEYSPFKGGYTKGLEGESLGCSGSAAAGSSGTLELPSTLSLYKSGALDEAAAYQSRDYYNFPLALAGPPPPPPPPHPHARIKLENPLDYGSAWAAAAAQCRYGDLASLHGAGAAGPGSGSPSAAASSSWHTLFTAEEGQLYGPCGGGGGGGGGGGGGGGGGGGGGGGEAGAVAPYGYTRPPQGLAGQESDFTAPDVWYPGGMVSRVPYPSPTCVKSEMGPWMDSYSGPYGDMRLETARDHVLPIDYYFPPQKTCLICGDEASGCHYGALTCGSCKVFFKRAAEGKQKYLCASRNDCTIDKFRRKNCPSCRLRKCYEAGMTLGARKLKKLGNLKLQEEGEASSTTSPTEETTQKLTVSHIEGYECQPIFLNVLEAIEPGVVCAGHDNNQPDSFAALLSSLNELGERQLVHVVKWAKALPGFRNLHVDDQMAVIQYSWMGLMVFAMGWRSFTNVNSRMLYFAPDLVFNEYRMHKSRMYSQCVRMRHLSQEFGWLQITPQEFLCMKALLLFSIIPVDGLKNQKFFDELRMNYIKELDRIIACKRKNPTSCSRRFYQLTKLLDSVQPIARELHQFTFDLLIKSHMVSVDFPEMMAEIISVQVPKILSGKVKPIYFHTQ
Protocol: Androgen Receptor Binding Test:
The test was carried out as in 1, with the following modifications: cytosol from androgen receptor-expressing insect cells (Hi5) was used, and the reference substance was ^3H-testosterone.

[4] = CHO K1 PR-LBD/Gal4 luciferase reporter cells, 16 hours incubation
[5] = CHO K1 PR-LBD/Gal4 luciferase reporter cells, 16 hours incubation, read-out: In vitro Transactivation Progesterone receptor Agonisten EC50

Compound | Receptor binding Progesterone receptor Competition factor (progesterone receptor [1]) | Emax (progesterone receptor [2]; [4]) | Receptor binding Mineralocorticoid receptor Competition factor [3] | CF PR/CF MR (progesterone receptor [1]) | IC50 (progesterone receptor [1]) | Receptor binding Androgen receptor Competition factor (androgen receptor) | IC50 (androgen receptor) | EC50 (progesterone receptor [2]) | Emax (progesterone receptor [2]; CHO-K1, 16 h) | EC50 (progesterone receptor [2]; [5])
C[C@]12CCC(=O)C=C1[C@@H]1C[C@@H]1[C@H]1[C@@H]3[C@@H]4C[C@@H]4[C@@]4(CCC(=O)O4)[C@@]3(C)CC[C@@H]12 [A, 6β,7β-15β,16β-dimethylene-3-oxo-17-pregn-4-ene-21,17β-carbolactone, reference compound] | 2.7 | 72.2% | 0.5 | – | – | – | – | – | – | –
C[C@]12CCC3C4CCC(=O)C=C4C4(CC4)CC3C1C1CC1[C@@]21CCC(=O)O1 (stereo partly drawn) [Example 8, 6,6-(1,2-Ethanediyl)-17β-hydroxy-15α,16α-methylene-19-nor-17α-pregna-4-en-3-one-21-carboxylic acid γ-lactone] | 0.71 | – | 0.9 | 0.79 | 8.9 nM | 1.4 | 26 nM | 0.1 nM | 69.7% | –
C[C@]12CCC3C4CCC(=O)C=C4[C@@H]4C[C@@H]4C3C1C1CC1[C@@]21CCC(=O)O1 (stereo in doubt) [compound 9] | – | – | – | – | – | – | – | – | 77.4% | 1 nM
CC1CC2=CC(=O)CCC2C2CC[C@@]3(C)C(C4CC4[C@@]34CCC(=O)O4)C12 (stereo partly drawn) [Example 3, 17β-Hydroxy-7α-methyl-15α,16α-methylene-19-nor-17α-pregna-4-en-3-one-21-carboxylicacid γ-lactone] | – | – | 1.3 | – | – | 2.8 | 61 nM | – | 87% | –
C=CC1CC2=CC(=O)CCC2C2CC[C@@]3(C)C(C4CC4[C@@]34CCC(=O)O4)C12 (stereo partly drawn) [Example 5, 17β-Hydroxy-7α-vinyl-15α,16α-methylene-19-nor-17α-pregna-4-en-3-one-21-carboxylic acid γ-lactone] | 1.16 | – | 1.4 | 0.83 | 15 nM | 3.0 | 55 nM | 3.4 nM | 66.1% | –
C[C@]12CCC3C4CCC(=O)C=C4CCC3C1C1CC1[C@@]21CCC(=O)O1 (stereo partly drawn) [Example 1, 17β-Hydroxy-15α,16α-methylene-19-nor-17α-pregna-4-en-3-one-21-carboxylic acid γ-lactone] | – | – | 1.8 | – | – | 110.0 | 6 nM | – | 55.9% | –
C[C@]12CCC3C4CCC(=O)C=C4[C@H](CO)CC3C1C1CC1[C@@]21CCC(=O)O1 (stereo partly drawn) [Example 7, 17β-Hydroxy-6β-hydroxymethyl-15α,16α-methylene-19-nor-17α-pregna-4-en-3-one-21-carboxylic acid γ-lactone] | 49.90 | 22.8% | 2.1 | 23.76 | 1100 nM | 1000.0 | 10000 nM | – | – | 910 nM
CCC1CC2=CC(=O)CCC2C2CC[C@@]3(C)C(C4CC4[C@@]34CCC(=O)O4)C12 (stereo partly drawn) [Example 4, 17β-Hydroxy-7α-ethyl-15α,16α-methylene-19-nor-17α-pregna-4-en-3-one-21-carboxylic acid γ-lactone] | 1.74 | – | 1.2 | 1.45 | 33 nM | 5.6 | 74 nM | 0.7 nM | 56.7% | –
C[C@]12CCC3C4CCC(=O)C=C4CC(C4CC4)C3C1C1CC1[C@@]21CCC(=O)O1 (stereo partly drawn) [Example 6, 17β-Hydroxy-7α-cyclopropyl-15α,16α-methylene-19-nor-17α-pregna-4-en-3-one-21-carboxylic acid γ-lactone] | 2.65 | – | 1.6 | 1.66 | 51 nM | 6.3 | 78 nM | 1 nM | 48.6% | –
C[C@]12CCC3C4CCC(=O)C=C4C4CC4C3C1C1CC1[C@@]21CCC(=O)O1 (stereo partly drawn) [Example 9 (B), 17β-hydroxy-6α,7α-15α,16α-bismethylene-19-nor-17α-pregna-4-en-3-one-21-carboxylic acid γ-lactone] | – | 107% | – | – | – | – | – | – | – | –
